Key:
Assay type in all cases: physicochemical
[1] = 5% weight loss temperature (thermogravimetric instrument); conditions: bisphenol; 10° C./min from room temperature to 500° C., nitrogen gas stream
Procedure: [6] 5% Weight Loss Temperature
Using a thermogravimetric instrument (TGA-50 from Shimadzu Corporation), measurement was performed with the temperature elevated at a rate of 10° C./min from room temperature to 500° C. under a nitrogen gas stream.

[2] = Refractive index and Abbe number (Abbe refractometer, NMP solutions extrapolated to 100% by weight); conditions: 20° C.; for Refractive index: 589 nm; for Abbe number: calculated from extrapolated refractive indices at 486, 589, 656 nm
Procedure: [5] Refractive Index and Abbe Number
The refractive index of each of the bisphenol, the polyarylate resin, the (meth)acrylate compound and the epoxy resin is a value determined using the following method and conditions. In addition, the Abbe number of each of the (meth)acrylate compound and the epoxy resin was calculated on the basis of the refractive index measured using the following method and conditions. • Apparatus: Abbe refractometer (“multiwavelength Abbe refractometer DR-2M” manufactured by ATAGO CO., LTD.) • Measurement wavelength: 589 nm (refractive index), 486, 589, 656 nm (Abbe number) • Measurement temperature: 20° C. • Refractive index of bisphenol: The bisphenol was dissolved in N-methyl-2-pyrrolidone (hereinafter, sometimes referred to as NMP) to prepare 5 wt %, 10 wt % and 15 wt % solutions, and the refractive index was measured for each of the solutions using the above-mentioned apparatus and conditions. Next, an approximate curve was derived from the obtained three measured values, and a value obtained by extrapolating the curve at 100% by weight was defined as a refractive index of each bisphenol. • Refractive index of polyarylate resin: A polyarylate resin powder was dissolved in NMP to prepare 1 wt %, 3 wt % and 5 wt % solutions, and the refractive index was measured for each of the solutions using the above-mentioned apparatus and conditions. Next, an approximate curve was derived from the obtained three measured values, and a value obtained by extrapolating the curve at 100% by weight was defined as a refractive index of each polyarylate resin. • Refractive index and Abbe number of (meth)acrylate compound: Each (meth)acrylate compound was dissolved in NMP to prepare a 5 wt %, 10 wt % and 15 wt % solutions (for Comparative Examples 4 and 5, 1 wt %, 3 wt % and 5 wt % solutions were prepared because the (meth)acrylate compound was hardly soluble in an organic solvent), and the refractive index at each wavelength was measured for each of the solutions using the above-mentioned apparatus and conditions. Next, an approximate curve was derived from the obtained three measured values, a value obtained by extrapolating the curve at 100% by weight was defined as a refractive index of each (meth)acrylate compound at each wavelength, and the Abbe number was calculated on the basis of the refractive index at each wavelength, which was determined as described above. • Refractive index and Abbe number of epoxy resin: Each epoxy resin was dissolved in NMP to prepare 5 wt %, 10 wt % and 15 wt % solutions, and the refractive index at each wavelength was measured for each of the solutions using the above-mentioned apparatus and conditions. Next, an approximate curve was derived from the obtained three measured values, a value obtained by extrapolating the curve at 100% by weight was defined as a refractive index of each epoxy resin at each wavelength, and the Abbe number was calculated on the basis of the refractive index at each wavelength, which was determined as described above.

[3] = Solubility test of (meth)acrylate compound; parameters: key: ◯: The sample is dissolved at room temperature.; Δ: The sample is dissolved when heated, and crystals are not precipitated even when the sample is cooled.; x: The sample is dissolved when heated, but crystals are precipitated when the sample is cooled, or the sample is not dissolved even when heated; conditions: for Solubility (30 mass % concentration) Monofunctional acrylate OPPEA: 30 parts by weight acrylate + 70 parts 2-phenylphenoxyethyl acrylate; for Solubility (30 mass % concentration) Solvent EA: 30 parts by weight acrylate + 70 parts ethyl acetate; for Solubility (30 mass % concentration) Monofunctional acrylate POB-A: 30 parts by weight acrylate + 70 parts m-phenoxybenzyl acrylate; for Solubility (30 mass % concentration) Solvent MEK: 30 parts by weight acrylate + 70 parts methyl ethyl ketone; for Solubility (30 mass % concentration) Solvent PGME: 30 parts by weight acrylate + 70 parts propylene glycol monomethyl ether; for Solubility (30 mass % concentration) Solvent PGMEA: 30 parts by weight acrylate + 70 parts propylene glycol monomethyl ether acetate
Procedure: (9-2) Solubility Test of (Meth)Acrylate Compound
30 parts by weight of the (meth)acrylate compound and 70 parts by weight of each of the diluents (solvent or monofunctional acrylate) shown in Table 3 were mixed, and solubility was evaluated on the basis of the following evaluation criteria.
◯: The sample is dissolved at room temperature.
Δ: The sample is dissolved when heated, and crystals are not precipitated even when the sample is cooled.
x: The sample is dissolved when heated, but crystals are precipitated when the sample is cooled, or the sample is not dissolved even when heated.

[4] = Glass transition temperature (DSC); conditions: (meth)acrylate compound; DSC 10° C./min
Procedure: [4] Melting Point (Melt Endothermic Maximum Temperature in Differential Scanning Calorimetry (DSC)) and Glass Transition Temperature
5 mg of a sample was precisely weighed, and taken in an aluminum pan, measurement was performed under the following operation conditions with aluminum oxide as a control using a differential scanning calorimeter (DSC 7020 manufactured by SII NanoTechnology Inc.), and the detected melt endothermic maximum temperature was defined as a melting point. For a sample (amorphous material, resin or the like) in which a melt endothermic peak was not detected, the intersection of tangent lines at an inflection point was defined as a glass transition temperature (Tg).
• Temperature elevation rate: 10° C./min (for bisphenol and (meth)acrylate compound) and 20° C./min (for polyarylate resin) • Measurement range: 30 to 250° C. (for bisphenol), 150 to 250° C. (for polyarylate resin) and −30 to 350° C. (for (meth)acrylate compound) • atmosphere: Open, nitrogen: 40 ml/min

[5] = bisphenol, 5, 10, 15 wt % NMP solutions extrapolated to 100% by weight
[6] = (meth)acrylate compound, 5, 10, 15 wt % NMP solutions (Comparative Examples 4 and 5: 1, 3, 5 wt %) extrapolated to 100% by weight

Compound | 5% weight loss temperature [1] | Refractive index [2, 5] | Solubility (30 mass % concentration) Monofunctional acrylate OPPEA [3] | Solubility (30 mass % concentration) Solvent EA [3] | Solubility (30 mass % concentration) Monofunctional acrylate POB-A [3] | Solubility (30 mass % concentration) Solvent MEK [3] | Solubility (30 mass % concentration) Solvent PGME [3] | Solubility (30 mass % concentration) Solvent PGMEA [3] | Refractive index [2, 6] | Abbe number ([2]; (meth)acrylate compound) | Tg [4]
Oc1ccc(C2(c3ccc(O)c(-c4ccccc4)c3)c3ccccc3-c3ccccc32)cc1-c1ccccc1 [Comparative Example 1] | 306 °C | 1.67 | – | – | – | – | – | – | – | – | –
Oc1c(Cc2ccccc2)cc(C2(c3cc(Cc4ccccc4)c(O)c(-c4ccccc4)c3)c3ccccc3-c3ccccc32)cc1-c1ccccc1 [Example 1] | 357 °C | 1.67 | – | – | – | – | – | – | – | – | –
C=CC(=O)Oc1c(Cc2ccccc2)cc(C2(c3cc(Cc4ccccc4)c(OC(=O)C=C)c(-c4ccccc4)c3)c3ccccc3-c3ccccc32)cc1-c1ccccc1 [Example 5] | – | – | ∘ | ∘ | ∘ | ∘ | ∘ | ∘ | 1.633 | 19.7 | 32.4 °C

The remaining lines, values ahead:

5% weight loss temperature [1] | Refractive index [2, 5] | Solubility (30 mass % concentration) Monofunctional acrylate OPPEA [3] | Solubility (30 mass % concentration) Solvent EA [3] | Solubility (30 mass % concentration) Monofunctional acrylate POB-A [3] | Solubility (30 mass % concentration) Solvent MEK [3] | Solubility (30 mass % concentration) Solvent PGME [3] | Solubility (30 mass % concentration) Solvent PGMEA [3] | Refractive index [2, 6] | Abbe number ([2]; (meth)acrylate compound) | Tg [4] | Compound
– | – | x | x | x | x | x | x | 1.606 | 25.5 | – | C=CC(=O)Oc1ccc(C2(c3ccc(OC(=O)C=C)c(C)c3)c3ccccc3-c3ccccc32)cc1C [Comparative Example 4]
– | – | x | x | x | x | x | x | 1.644 | 21.4 | – | C=CC(=O)Oc1ccc(C2(c3ccc(OC(=O)C=C)c(-c4ccccc4)c3)c3ccccc3-c3ccccc32)cc1-c1ccccc1 [Comparative Example 5]
– | – | ∘ | ∘ | ∘ | ∘ | x | ∘ | 1.591 | 23.1 | 0.0 °C | C=CC(=O)OCCOc1ccc(C2(c3ccc(OCCOC(=O)C=C)c(C)c3)c3ccccc3-c3ccccc32)cc1C [Comparative Example 6]
363 °C | 1.65 | – | – | – | – | – | – | – | – | – | OCCOc1ccc(C2(c3ccc(OCCO)c(-c4ccccc4)c3)c3ccccc3-c3ccccc32)cc1-c1ccccc1 [Reference Example 1]
– | – | x | ∘ | x | ∘ | x | x | 1.632 | 19.0 | – | C=CC(=O)Oc1ccc2ccccc2c1-c1c(OC(=O)C=C)ccc2ccccc12 [Reference Example 2]

Reference: US10689318B2, “Bisphenol having fluorene skeleton, method for producing same, polyarylate resin, (meth)acrylate compound and epoxy resin which are derived from the bisphenol” (TAOKA CHEMICAL CO., LTD., priority 2016, dated 2020)
